Test results taken from the NIST ThermoML archive (doi:10.1021/je301283e).
± gives the expanded uncertainty stated by the source.

Conditions: Liquid, Vibrating tube method

CCCCCCCCCCCCCCCC [hexadecane]
mass density [kg/m3]
Conditions | 313.15 K | 333.15 K | 353.15 K | 373.15 K | 393.15 K
340 kPa | 759.52 ± 1.4 | 746.8 ± 1.4 | 736.2 ± 1.4 | 723.1 ± 1.4 | 710 ± 1.4
690 kPa | 759.83 ± 1.4 | 747.1 ± 1.4 | 736.4 ± 1.4 | 723.3 ± 1.4 | 710.3 ± 1.4
1030 kPa | 760.08 ± 1.4 | 747.4 ± 1.4 | 736.6 ± 1.4 | 723.6 ± 1.4 | 710.6 ± 1.4
1380 kPa | 760.33 ± 1.4 | 747.7 ± 1.4 | 736.9 ± 1.4 | 723.8 ± 1.4 | 710.9 ± 1.4
1720 kPa | 760.65 ± 1.4 | 748 ± 1.4 | 737.1 ± 1.4 | 724 ± 1.4 | 711.1 ± 1.4
2070 kPa | 760.88 ± 1.4 | 748.2 ± 1.4 | 737.4 ± 1.4 | 724.3 ± 1.4 | 711.4 ± 1.4
2410 kPa | 761.08 ± 1.4 | 748.5 ± 1.4 | 737.7 ± 1.4 | 724.6 ± 1.4 | 711.7 ± 1.4
2760 kPa | 761.33 ± 1.4 | 748.7 ± 1.4 | 738 ± 1.4 | 724.9 ± 1.4 | 712 ± 1.4
3100 kPa | 761.65 ± 1.4 | 749 ± 1.4 | 738.3 ± 1.4 | 725.1 ± 1.4 | 712.2 ± 1.4
3450 kPa | 761.83 ± 1.4 | 749.2 ± 1.4 | 738.7 ± 1.4 | 725.4 ± 1.4 | 712.3 ± 1.4
3800 kPa | 762.08 ± 1.4 | 749.5 ± 1.4 | 739.1 ± 1.4 | 725.6 ± 1.4 | 712.5 ± 1.4
4140 kPa | 762.33 ± 1.4 | 749.8 ± 1.4 | 739.3 ± 1.4 | 725.9 ± 1.4 | 712.8 ± 1.4
4480 kPa | 762.49 ± 1.4 | 750 ± 1.4 | 739.5 ± 1.4 | 726.1 ± 1.4 | 713 ± 1.4
4830 kPa | 762.83 ± 1.4 | 750.2 ± 1.4 | 739.8 ± 1.4 | 726.4 ± 1.4 | 713.3 ± 1.4
5170 kPa | 763.08 ± 1.4 | 750.5 ± 1.4 | 740 ± 1.4 | 726.7 ± 1.4 | 713.5 ± 1.4
5510 kPa | 763.33 ± 1.4 | 750.7 ± 1.4 | 740.2 ± 1.4 | 726.9 ± 1.4 | 713.8 ± 1.4
5860 kPa | 763.58 ± 1.4 | 751 ± 1.4 | 740.4 ± 1.4 | 727.2 ± 1.4 | 714 ± 1.4
6200 kPa | 763.83 ± 1.4 | 751.2 ± 1.4 | 740.5 ± 1.4 | 727.5 ± 1.4 | 714.3 ± 1.4
6550 kPa | 764.08 ± 1.4 | 751.4 ± 1.4 | 740.7 ± 1.4 | 727.8 ± 1.4 | 714.6 ± 1.4
6890 kPa | 764.33 ± 1.4 | 751.6 ± 1.4 | 741 ± 1.4 | 728.1 ± 1.4 | 714.9 ± 1.4
7240 kPa | 764.65 ± 1.4 | 752 ± 1.4 | 741.2 ± 1.4 | 728.4 ± 1.4 | 715.1 ± 1.4
7580 kPa | 764.83 ± 1.4 | 752.4 ± 1.4 | 741.5 ± 1.4 | 728.5 ± 1.4 | 715.3 ± 1.4
7930 kPa | 765.08 ± 1.4 | 752.6 ± 1.4 | 741.7 ± 1.4 | 728.9 ± 1.4 | 715.5 ± 1.4
8270 kPa | 765.33 ± 1.4 | 752.8 ± 1.4 | 742 ± 1.4 | 729.4 ± 1.4 | 715.8 ± 1.4
8620 kPa | 765.58 ± 1.4 | 753 ± 1.4 | 742.2 ± 1.4 | 729.9 ± 1.4 | 716 ± 1.4
8960 kPa | 765.74 ± 1.4 | 753.2 ± 1.4 | 742.5 ± 1.4 | 730.2 ± 1.4 | 716.3 ± 1.4
9310 kPa | 765.99 ± 1.4 | 753.5 ± 1.4 | 742.7 ± 1.4 | 730.6 ± 1.4 | 716.6 ± 1.4
9650 kPa | 766.24 ± 1.4 | 753.8 ± 1.4 | 742.9 ± 1.4 | 730.8 ± 1.4 | 716.8 ± 1.4
10000 kPa | 766.49 ± 1.4 | 754 ± 1.4 | 743.1 ± 1.4 | 731 ± 1.4 | 717.1 ± 1.4
10340 kPa | 766.74 ± 1.4 | 754.3 ± 1.4 | 743.5 ± 1.4 | 731.4 ± 1.4 | 717.4 ± 1.4
10690 kPa | 766.98 ± 1.4 | 754.5 ± 1.4 | 743.9 ± 1.4 | 731.6 ± 1.4 | 717.6 ± 1.4
11030 kPa | 767.22 ± 1.4 | 754.8 ± 1.4 | 744.1 ± 1.4 | 731.9 ± 1.4 | 717.9 ± 1.4
11380 kPa | 767.48 ± 1.4 | 755 ± 1.4 | 744.3 ± 1.4 | 732.1 ± 1.4 | 718.1 ± 1.4
